Patent US20250340543A1, “GPR84 ANTAGONISTS AND USES THEREOF” (Liminal BioSciences Limited, priority 2021, published 2025)

biological target: GPR84 (Homo sapiens (Human), UniProt Q9NQS5); assay: Gai biosensor BRET assay (GPR84-mediated activation of Gai, antagonist mode against agonist ZQ-16); format: cell-based; settings: HEK293 cells, 200 nmol/L GPR84 agonist ZQ-16, read-out: hGPR84 IC50
Excerpt: Background—The following assays can be used for determination of GPR84 activation in living HEK293 cells. […] The Gai biosensor consists of a Rluc8-tagged Gαi2 subunit, a GFP10-tagged Gγ2 subunit, and an untagged Gβ1. […] Moreover, signaling functions of GPCRs are tightly regulated by endocytosis, the targeting of receptors to endosomes and their sorting to lysosomes or recycling to the plasma membrane. […] Agonist stimulation of GPR84—Rluc8 leads to trafficking of the receptor to EEs, and ensuing increase of the donor concentration relative to the rGFP-FYVE acceptor anchored in the same cellular compartment, and thus results in an increase in BRET signal.
Plasmids—The cDNA clones for human GPR84 receptor, human Gαi2, Gβ1, and Gγ2 were obtained from the cDNA Resource Center (www.cdna.org). GFP10 (F64L, S147P, S202F and H231L variant of Aequorea victoria Green Fluorescent Protein) gBlocks gene fragments (Integrated DNA Technologies, IA) and linker were inserted in frame at the N-terminus of human Gγ2. Rluc8 (A55T, C124A, S130A, K136R, A143M, M185V, M253L, and S287L variant of the Renilla renformis luciferase) gBlocks gene fragment was inserted with linkers in frame in between residues 91 and 92 of Gαi2 or at the C-terminus of GPR84. The FYVE domain from human endofin (residues Q739 to K806) attached in frame at the C terminus of a humanized Renilla GFP (rGFP), were synthesized as gBlocks gene fragments.
Bioluminescence Resonance Energy Transfer (BRET) Measurement—HEK293 cells were transfected with GPR84—Rluc8 and rGFP-FYVE for the EEs trafficking biosensor or with GPR84, Gαi2—Rluc8, GFP10-Gγ2, and Gβ1 for the Gai biosensor. The following day, transiently transfected cells were seeded in 96-well white clear bottom microplates coated with poly-D-lysine and left in culture for 24 hours. Cells were washed once with Tyrode's buffer (140 mmol/L NaCl, 1 mmol/L CaCl2, 2.7 mmol/L KCl, 0.49 mmol/L MgCl2, 0.37 mmol/L NaH2PO4, 5.6 mmol/L glucose, 12 mmol/L NaHCO3, and 25 mmol/L HEPES, pH 7.5) before performing assays in Tyrode's buffer. Test compounds were incubated with cells for 5 (Gai) or 15 (EEs) minutes at 37° C. before addition of 200 nmol/L of the GPR84 agonist ZQ-16 (2-(Hexylthio)-6-hydroxy-4(3H)-pyrimidinone) for 5 minutes at room temperature (Gai) or 30 minutes at 37° C. (EEs). The Rluc8 substrate coelenterazine 400A (Prolume, Lakeside, AZ) was added at a final concentration of […] and BRET readings were collected using an Infinite M1000 microplate reader (Tecan, Morrisville, NC). BRET^2 readings between Rluc8 and GFP10 or rGFP were collected by sequential integration of the signals detected in the 370 to 450 nm (Rluc8) and 510 to 540 nm (GFP10, rGFP) windows. The BRET signal was calculated as the ratio of light emitted by acceptor (GFP10, rGFP) over the light emitted by donor (Rluc8). The values were corrected to net BRET by subtracting the background BRET signal obtained in cells transfected with Rluc8 constructs alone. Ligand-promoted net BRET values were calculated by subtracting vehicle-induced net BRET from ligand-induced net BRET.

Chain of GPR84 (Q9NQS5 whole entry): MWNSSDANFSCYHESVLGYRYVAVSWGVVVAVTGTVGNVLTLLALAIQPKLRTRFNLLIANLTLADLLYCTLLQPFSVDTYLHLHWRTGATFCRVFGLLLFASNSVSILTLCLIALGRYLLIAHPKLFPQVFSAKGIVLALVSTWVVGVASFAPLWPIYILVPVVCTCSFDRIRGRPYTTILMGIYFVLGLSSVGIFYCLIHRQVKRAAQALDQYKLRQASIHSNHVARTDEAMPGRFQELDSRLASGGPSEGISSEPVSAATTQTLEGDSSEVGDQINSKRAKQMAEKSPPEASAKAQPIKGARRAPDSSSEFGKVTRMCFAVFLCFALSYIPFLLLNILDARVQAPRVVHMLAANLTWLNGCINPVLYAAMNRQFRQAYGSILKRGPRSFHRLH

Row | IC50 [µM] | SMILES
1 | < 5 | Cc1cc(OCc2nccs2)cc(=O)n1[C@H](C)c1ccc(C#CC2CC2)cc1 [Compound I-293]
2 | < 5 | Cc1cc(OCc2cncnc2)cc(=O)n1[C@H](C)c1ccc(C#CC2CC2)cc1 [Compound I-283]
3 | < 5 | Cc1cc(OCc2cnnn2C)cc(=O)n1[C@H](C)c1ccc(C#CC2CC2)cc1 [Compound I-359]

Continued, compound first:

Row | SMILES | IC50 [µM]
4 | COc1cc(OCC2COCCO2)cc(-c2ccc(OCc3ccccn3)cc2C)n1 (stereo not drawn) [Compound I-37] | < 5
5 | Cc1cc(OCc2ccccn2)ccc1-c1cc(OCC2COCCO2)cc(Cl)n1 (stereo not drawn) [Compound I-58] | > 12.5
6 | COc1cc(OCC2CCOCC2)cc(-c2ccc(-c3ccc(C)nc3)cc2C)n1 [Compound I-3] | < 5
7 | CCn1c(-c2ccc(C#CC3CC3)cc2)cc(OCC2COCCO2)cc1=O (stereo not drawn) [Compound I-26] | 10 to 15
8 | COc1cc(OCC2COCCO2)cc(-c2ccc(-c3ccc(C)nc3)cc2)n1 (stereo not drawn) [Compound I-51] | > 25

same assay, conditions: compound tested at 2 μM (concentration code A)

Row | inhibition at 2 µM [%] | SMILES
9 | > 75 | Cc1cc(OCc2cncs2)cc(=O)n1[C@H](C)c1ccc(C#CC2CC2)cc1 [Compound I-311]
10 | > 75 | Cc1cc(OCc2nccs2)cc(=O)n1[C@H](C)c1ccc(C#CC2CC2)cc1 [Compound I-293]
11 | > 75 | Cc1cc(OCc2cncnc2)cc(=O)n1[C@H](C)c1ccc(C#CC2CC2)cc1 [Compound I-283]
12 | 25 to 50 | COc1cc(OCC2COc3ncccc3O2)cc(-c2ccc(-c3ccc(C)nc3)cc2C)n1 (stereo not drawn) [Compound I-57]

same assay, conditions: compound tested at 10 μM (concentration code D)

Row | inhibition at 10 µM [%] | SMILES
13 | 50 to 75 | Cc1cc(OCc2ncccn2)cc(=O)n1Cc1ccc(C#CC2CC2)cc1 [Compound I-237]
14 | < 25 | CCCCCCOc1ccc(C(C)n2c(C)cc(OCc3ncccn3)cc2=O)cc1 (stereo not drawn) [Compound I-345]
15 | 25 to 50 | CC(c1ccc(C#CC2CC2)cn1)n1ccc(OCc2ncccn2)cc1=O (stereo not drawn) [Compound I-249]
16 | 25 to 50 | Cc1cc(OCc2ncccn2)cc(=O)n1C(C)c1ccc(C#CC2CC2)s1 (stereo not drawn) [Compound I-292]
17 | 50 to 75 | Cc1cc(OCc2ncccn2)nc(=O)n1C(C)c1ccc(C#CC2CC2)cc1 (stereo not drawn) [Compound I-320]
18 | < 25 | Cc1cc(OCc2ncccn2)cc(=O)n1Cc1cccc(N2CC(C)(C)C2)c1 [Compound I-271]
19 | < 25 | Cc1cc(OCc2ncccn2)cc(=O)n1C(C)C1CCN(c2ccc(C3CC3)cc2)CC1 (stereo not drawn) [Compound I-368]
20 | > 75 | Cc1cc(OCc2cnn(C)n2)cc(=O)n1[C@H](C)c1ccc(C#CC2CC2)cc1 [Compound I-358]
21 | < 25 | Cc1cc(OCc2ncccn2)cc(=O)n1C(C)c1cc(C#CC2CC2)cs1 (stereo not drawn) [Compound I-265]
22 | < 25 | C#Cc1ccc(C(C)n2c(C)cc(OCc3ncccn3)cc2=O)cc1 (stereo not drawn) [Compound I-353]
23 | < 25 | Cc1cc(OCc2ncccn2)cc(=O)n1[C@H](C)c1ccc(C#N)cc1 [Compound I-243]
24 | > 75 | Cc1cc(OCc2ccn(C)n2)cc(=O)n1[C@H](C)c1ccc(C#CC2CC2)cc1 [Compound I-350]
25 | > 75 | Cc1cc(OCc2cnnn2C)cc(=O)n1[C@H](C)c1ccc(C#CC2CC2)cc1 [Compound I-359]
26 | < 25 | Cc1cc(C#CC2CC2)ccc1C(C)n1ccc(OCc2ncccn2)cc1=O (stereo not drawn) [Compound I-251]
27 | < 25 | Cc1cc(OCc2ncccn2)cc(=O)n1[C@@H](C)Cc1cccc(C#CC2CC2)c1 (stereo in doubt) [Compound I-282]
28 | > 75 | Cc1cc(OCc2cnc(C3CC3)cn2)cc(=O)n1[C@H](C)c1ccc(C#CC2CC2)cc1 [Compound I-323]
29 | < 25 | Cc1cc(OCc2ncccn2)cc(=O)n1[C@H](C)c1ccc(-c2cnc(C3CC3)nc2)cc1 [Compound I-347]

The next lines start with the compound.

Row | SMILES | inhibition at 10 µM [%]
30 | Cc1cc(OCC2COCCO2)cc(=O)n1[C@H](CO)c1ccc(C#CC2CC2)cc1 (stereo in doubt) [Compound I-147] | 25 to 50
31 | CC#Cc1ccc([C@@H](C)n2c(C)cc(OCC3COCCO3)cc2=O)cc1 (stereo partly drawn) [Compound I-219] | 50 to 75
32 | COc1ccc2nc(-c3ccc(C#CC4CC4)cc3)cn2c1 [Compound I-216] | < 25
33 | Cc1cc(OCC2COc3ccccc3O2)cc(=O)n1C(C)c1ccc(C#CC2CC2)cc1 (stereo not drawn) [Compound I-65] | < 25
34 | CC(c1ccc(C#CC2CC2)cc1)n1ccc(OCC2COCCO2)cc1=O (stereo not drawn) [Compound I-13] | > 75
35 | Cc1cc(OCC2COCCO2)cc(=O)n1Cc1cc(C#CC2CC2)ccc1F (stereo not drawn) [Compound I-143] | < 25
36 | Cc1cc(OCC2COCCO2)cc(=O)n1Cc1cccc(C#CCNCc2ccccc2)c1 (stereo not drawn) [Compound I-97] | < 25
37 | COCC#Cc1ccc([C@@H](C)n2c(C)cc(OCC3CCOCC3)cc2=O)cc1 (stereo in doubt) [Compound I-83] | < 25
38 | Cc1cc(OC[C@H]2COCCO2)cc(=O)n1Cc1ccc(F)c(C#CC2CC2)c1 [Compound I-28] | < 25
39 | Cc1cc(OCC2COCCO2)cc(=O)n1-c1ccc(C#CC2CC2)cc1 (stereo not drawn) [Compound I-225] | 25 to 50
40 | Cc1cc(OCC2COCCO2)cc(=O)n1Cc1cccc(N2CC(C)(C)C2)c1 (stereo not drawn) [Compound I-146] | < 25
41 | Cc1cc(OCC2COc3ncccc3O2)cc(=O)n1C(C)c1ccc(C#CC2CC2)cc1 (stereo not drawn) [Compound I-106] | > 75
42 | Cc1cc(OCC2COCCO2)cc(=O)n1-c1cccc(C#CC2CC2)c1 (stereo not drawn) [Compound I-226] | 50 to 75

same assay, conditions: compound tested at 12.5 μM (concentration code E)

Row | inhibition at 12.5 µM [%] | SMILES
43 | 25 to 50 | Cc1c(-c2ccc(OCC(F)(F)F)cc2)n(C)c(OCC2COCCO2)cc1=O (stereo not drawn) [Compound I-52]
44 | 25 to 50 | Cc1cc(OCc2ccccn2)ccc1-c1cc(OCC2COCCO2)cc(Cl)n1 (stereo not drawn) [Compound I-58]
45 | < 25 | Cc1cc(OCC2COc3ccccc3O2)cc(=O)n1Cc1ccc(C#CC2CC2)cc1 (stereo not drawn) [Compound I-73]
46 | < 25 | COc1cc(OCC2COCCO2)cc(-c2ccc(OCc3ccccn3)cc2)n1 (stereo not drawn) [Compound I-15]

same assay, conditions: compound tested at 15 μM (concentration code F)

Row | inhibition at 15 µM [%] | SMILES
47 | < 25 | COc1cc(OCC2COCCO2)cc(-c2cccc(-c3ccc(C)nc3)c2)n1 (stereo not drawn) [Compound I-66]
48 | < 25 | COc1ccc(OCC2COCCO2)cc1Cc1ccc(C#CC2CC2)cc1 (stereo not drawn) [Compound I-210]

same assay, conditions: compound tested at 25 μM (concentration code G)

Row | inhibition at 25 µM [%] | SMILES
49 | 25 to 50 | COc1cc(OCC2COCCO2)cc(-c2ccc(OCc3ccccn3)cc2C)n1 (stereo not drawn) [Compound I-37]
50 | < 25 | Cn1c(-c2ccc(OCC(F)(F)F)cc2)cc(OCC2COCCO2)nc1=O (stereo not drawn) [Compound I-62]
51 | 25 to 50 | O=C(CC1CCCCO1)N1Cc2ccc(C#CC3CC3)cc2C1 (stereo not drawn) [Compound I-186]
52 | < 25 | Cc1ccc(-c2ccc3c(c2)CN(C(=O)CC2CCCCO2)C3)cn1 (stereo not drawn) [Compound I-197]
53 | 50 to 75 | Cc1cc(C#CC2CC2)ccc1-c1cncc(OCC2CCCCO2)c1 (stereo not drawn) [Compound I-24]
54 | < 25 | COc1cc(OCC2COCCO2)cc(-c2ccc(OCC(F)(F)F)cc2)c1OC (stereo not drawn) [Compound I-156]
55 | 25 to 50 | COc1cc(OCC2COCCO2)cc(-c2c(C)cc(OCc3ccccn3)cc2C)n1 (stereo not drawn) [Compound I-46]
56 | < 25 | O=C(CC1COCCO1)N1Cc2ccc(C#CC3CC3)cc2C1 (stereo not drawn) [Compound I-177]
57 | < 25 | C(#CC1CC1)c1ccc(Cc2cccc(OCC3COCCO3)c2)cc1 (stereo not drawn) [Compound I-174]
58 | < 25 | COc1cc(OCC2COCCO2)cc(-c2ccc(C#CC3CC3)cc2)n1 (stereo not drawn) [Compound I-40]
59 | 50 to 75 | CCn1c(-c2ccc(C#CC3CC3)cc2)cc(OCC2COCCO2)cc1=O (stereo not drawn) [Compound I-26]
60 | < 25 | COc1ccc(CN2CCN(c3cc(OCC4COCCO4)nc(=O)n3C)CC2)cc1 (stereo not drawn) [Compound I-81]
61 | < 25 | O=c1cnn(CC2CCCCO2)c(-c2ccc(C#CC3CC3)cc2)c1 (stereo not drawn) [Compound I-16]
62 | 25 to 50 | COc1cc(OCC2COCCO2)cc(-c2ccc(-c3ccc(C)nc3)cc2)n1 (stereo not drawn) [Compound I-51]
63 | < 25 | COc1cc(NC(=O)C2CCCCO2)cc(-c2cccc(C#CC3CC3)c2)n1 (stereo not drawn) [Compound I-84]
64 | < 25 | CN1CCN(c2cc(OCC3COCCO3)nc(=O)n2C)CC1 (stereo not drawn) [Compound I-137]
65 | < 25 | FC(F)(F)COc1ccc(-c2cc(Cl)cc(OCC3COCCO3)c2)cc1 (stereo not drawn) [Compound I-161]
66 | < 25 | CC(=O)N1CCN(c2cc(OCC3COCCO3)nc(=O)n2C)CC1 (stereo not drawn) [Compound I-138]
